Measurements taken from patent publication US20050282743A1, “Molecular interactions in cells” (Arbor Vita Corporation, priority 2001, published 2005).
Peptide text beside a SMILES is read from it. * marks the point of attachment. Biotin = O=C1N[C@H]2[C@H](CS[C@H]2CCCCC(=O)*)N1

Molecular target: T1, PDZ protein (GST-PDZ fusion) (Homo sapiens, UniProt Q02410)
T1 construct: made in house; host or cells: E. coli (DH5alpha, BL21 or JM109)
T1 sequence (Q02410 1-837): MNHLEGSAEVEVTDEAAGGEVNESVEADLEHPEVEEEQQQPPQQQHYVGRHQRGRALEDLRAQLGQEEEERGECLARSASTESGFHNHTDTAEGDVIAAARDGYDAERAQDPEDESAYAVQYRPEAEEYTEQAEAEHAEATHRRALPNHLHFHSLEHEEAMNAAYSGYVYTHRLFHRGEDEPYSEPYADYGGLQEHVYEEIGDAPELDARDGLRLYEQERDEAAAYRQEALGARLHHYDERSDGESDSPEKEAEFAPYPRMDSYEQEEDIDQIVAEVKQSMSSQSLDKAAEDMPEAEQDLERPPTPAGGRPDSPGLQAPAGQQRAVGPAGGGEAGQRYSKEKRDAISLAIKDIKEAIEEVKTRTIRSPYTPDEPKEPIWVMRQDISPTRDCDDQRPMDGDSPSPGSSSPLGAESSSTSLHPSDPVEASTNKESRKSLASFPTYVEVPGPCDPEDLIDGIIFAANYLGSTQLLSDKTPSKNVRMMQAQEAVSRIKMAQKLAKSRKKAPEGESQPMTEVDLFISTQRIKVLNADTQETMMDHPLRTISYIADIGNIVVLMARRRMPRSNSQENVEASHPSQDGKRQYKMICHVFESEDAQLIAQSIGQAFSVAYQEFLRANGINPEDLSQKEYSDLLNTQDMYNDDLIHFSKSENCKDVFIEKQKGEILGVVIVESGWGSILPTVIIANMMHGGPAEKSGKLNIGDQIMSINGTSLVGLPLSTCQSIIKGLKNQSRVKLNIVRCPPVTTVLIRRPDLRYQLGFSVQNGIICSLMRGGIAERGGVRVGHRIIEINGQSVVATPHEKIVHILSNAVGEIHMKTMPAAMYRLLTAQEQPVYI
Experiment: G' assay (10 uM PL peptide), results of TABLE 7 and TABLE 12
Type: binding
In short: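 Biotinylated PL peptides at 10 uM (vs 20 uM in G^0 assay) bound to GST-PDZ fusions; PDZ protein at 5 ug/ml unless another concentration listed. Bound peptide read as A450 nm, classified 0–5 (0 = A450 0; 5 = A450 >4 repeated).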

Classification (PDZ Mint 1, PDZ Domain 1, 2)	SMILES	Classification (PDZ Mint 1, PDZ Domain 2)	other results
1 (A450 nm 0-1)	CC(C)C[C@H](NC(=O)[C@H](CC(C)C)NC(=O)[C@@H](NC(=O)[C@H](CC(=O)O)NC(=O)CCCC[C@@H]1SC[C@@H]2NC(=O)N[C@@H]21)[C@@H](C)O)C(=O)N[C@@H](CC(C)C)C(=O)N[C@H](C(=O)N[C@@H](CCC(=O)O)C(=O)N[C@@H](CC(N)=O)C(=O)N[C@@H](CCC(=O)O)C(=O)NCC(=O)N[C@@H](CC(=O)O)C(=O)N[C@@H](CCCCN)C(=O)N[C@H](C(=O)N[C@@H](CCC(=O)O)C(=O)N[C@@H](CCC(=O)O)C(=O)N[C@@H](CCC(N)=O)C(=O)N[C@H](C(=O)N[C@@H](CO)C(=O)N[C@@H](Cc1ccc(O)cc1)C(=O)N[C@H](C(=O)O)C(C)C)C(C)C)[C@@H](C)O)[C@@H](C)O [5H2B_HUMAN] (Biotin-DTLLLTENEGDKTEEQVSYV-OH; C-terminus assumed)	1 (A450 nm 0-1)	–
–	CC[C@H](C)[C@H](NC(=O)[C@H](CCCCN)NC(=O)[C@@H](NC(=O)[C@H](CO)NC(=O)[C@@H]1CCCN1C(=O)[C@H](Cc1ccccc1)NC(=O)[C@@H](NC(=O)[C@@H](NC(=O)[C@H](CCCNC(=N)N)NC(=O)[C@H](CCC(=O)O)NC(=O)[C@H](CC(C)C)NC(=O)[C@H](CC(C)C)NC(=O)[C@H](CC(C)C)NC(=O)[C@@H](NC(=O)CNC(=O)[C@@H](NC(=O)CCCC[C@@H]1SC[C@@H]2NC(=O)N[C@@H]21)C(C)C)[C@@H](C)O)C(C)C)[C@@H](C)CC)C(C)C)C(=O)N[C@@H](C)C(=O)N[C@H](C(=O)N[C@@H](CC(C)C)C(=O)N[C@H](C(=O)O)C(C)C)[C@@H](C)O [Adenovirus E4 Type9]	–	Classification (PDZ Mint 1, PDZ Domain 1, 2, PL peptide 10 uM): 2 (A450 nm 1-2); Classification (PDZ Mint 1, PDZ Domain 2, PL peptide 10 uM): 2 (A450 nm 1-2)
–	CC(C)C[C@H](NC(=O)[C@H](C)NC(=O)[C@@H](NC(=O)[C@H](CCC(=O)O)NC(=O)[C@H](CCCNC(=N)N)NC(=O)[C@H](CCCNC(=N)N)NC(=O)CNC(=O)[C@H](CCC(N)=O)NC(=O)[C@H](CC(C)C)NC(=O)[C@H](CCCNC(=N)N)NC(=O)CNC(=O)CNC(=O)[C@H](CCCNC(=N)N)NC(=O)[C@H](C)NC(=O)[C@H](CO)NC(=O)[C@H](CCCNC(=N)N)NC(=O)CNC(=O)CNC(=O)[C@H](C)NC(=O)[C@H](C)NC(=O)CCCC[C@@H]1SC[C@@H]2NC(=O)N[C@@H]21)[C@@H](C)O)C(=O)O [HPV E6 33 (modified)] (Biotin-AAGGRSARGGRLQGRRETAL-OH; C-terminus assumed)	1 (A450 nm 0-1)	–
–	CC(C)C[C@H](NC(=O)[C@H](CCCNC(=N)N)NC(=O)CNC(=O)CNC(=O)[C@H](CCCNC(=N)N)NC(=O)[C@H](C)NC(=O)[C@@H]1CCCN1C(=O)[C@H](CCCNC(=N)N)NC(=O)CNC(=O)CNC(=O)[C@@H](NC(=O)[C@H](C)NC(=O)CCCC[C@@H]1SC[C@@H]2NC(=O)N[C@@H]21)C(C)C)C(=O)N[C@@H](CCC(N)=O)C(=O)NCC(=O)N[C@@H](CCCNC(=N)N)C(=O)N[C@@H](CCCNC(=N)N)C(=O)N[C@@H](CCC(N)=O)C(=O)N[C@H](C(=O)N[C@@H](CCC(N)=O)C(=O)N[C@H](C(=O)O)C(C)C)[C@@H](C)O [HPV E6 58 (modified)] (Biotin-AVGGRPARGGRLQGRRQTQV-OH; C-terminus assumed)	1 (A450 nm 0-1)	–
3 (A450 nm 2-3)	CC[C@H](C)[C@H](NC(=O)CNC(=O)[C@H](CO)NC(=O)[C@H](Cc1ccccc1)NC(=O)[C@@H](NC(=O)[C@H](CS)NC(=O)CNC(=O)CNC(=O)[C@H](C)NC(=O)[C@@H]1CCCN1C(=O)[C@@H](NC(=O)[C@@H]1CCCN1C(=O)CCCC[C@@H]1SC[C@@H]2NC(=O)N[C@@H]21)[C@@H](C)CC)[C@@H](C)O)C(=O)N[C@@H](Cc1ccccc1)C(=O)N1CCC[C@H]1C(=O)N[C@H](C(=O)N[C@@H](CC(C)C)C(=O)N[C@H](C(=O)N[C@@H](CO)C(=O)N1CCC[C@H]1C(=O)N[C@@H](CC(C)C)C(=O)O)[C@@H](C)O)[C@@H](C)O [KIA 1481] (Biotin-PIPAGGCTFSGIFPTLTSPL-OH; C-terminus assumed)	3 (A450 nm 2-3)	–
–	CC(C)C[C@H](NC(=O)[C@H](C)NC(=O)[C@@H](NC(=O)[C@@H](NC(=O)[C@H](Cc1c[nH]cn1)NC(=O)[C@H](CC(C)C)NC(=O)CNC(=O)[C@H](CCC(N)=O)NC(=O)CNC(=O)CNC(=O)[C@H](C)NC(=O)[C@H](C)NC(=O)[C@H](CCCNC(=N)N)NC(=O)[C@H](C)NC(=O)[C@H](CO)NC(=O)[C@H](CC(=O)O)NC(=O)[C@H](CC(=O)O)NC(=O)[C@H](Cc1c[nH]c2ccccc12)NC(=O)[C@H](C)NC(=O)CCCC[C@@H]1SC[C@@H]2NC(=O)N[C@@H]21)C(C)C)[C@@H](C)O)C(=O)O [LPAP] (Biotin-AWDDSARAAGGQGLHVTAL-OH; C-terminus assumed)	1 (A450 nm 0-1)	–
5 (A450 nm of 4 more than 2× repeated)	CC[C@H](C)[C@H](NC(=O)[C@H](Cc1ccc(O)cc1)NC(=O)[C@@H](NC(=O)[C@@H]1CCCN1C(=O)[C@H](CCC(N)=O)NC(=O)[C@H](CCC(=O)O)NC(=O)[C@H](CCC(N)=O)NC(=O)[C@H](C)NC(=O)[C@@H](NC(=O)[C@H](CC(C)C)NC(=O)[C@H](CC(C)C)NC(=O)[C@H](CCCNC(=N)N)NC(=O)[C@H](Cc1ccc(O)cc1)NC(=O)[C@H](CCSC)NC(=O)[C@H](C)NC(=O)[C@H](C)NC(=O)[C@@H]1CCCN1C(=O)[C@H](CCSC)NC(=O)[C@@H](NC(=O)[C@H](CCCCN)NC(=O)CCCC[C@@H]1SC[C@@H]2NC(=O)N[C@@H]21)[C@@H](C)O)[C@@H](C)O)C(C)C)C(=O)O [MINT-1] (Biotin-KTMPAAMYRLLTAQEQPVYI-OH; C-terminus assumed)	–	Classification (PDZ Mint 1, PDZ Domain 1): 3 (A450 nm 2-3)
1 (A450 nm 0-1)	CC(C)C[C@H](NC(=O)CNC(=O)[C@@H](NC(=O)[C@H](CO)NC(=O)[C@H](CC(N)=O)NC(=O)[C@H](Cc1ccccc1)NC(=O)CNC(=O)[C@H](C)NC(=O)[C@H](C)NC(=O)[C@H](Cc1ccccc1)NC(=O)[C@@H](NC(=O)CCCC[C@@H]1SC[C@@H]2NC(=O)N[C@@H]21)[C@@H](C)O)[C@@H](C)O)C(=O)N1CCC[C@H]1C(=O)N[C@@H](Cc1c[nH]cn1)C(=O)N[C@@H](CO)C(=O)N[C@H](C(=O)N[C@H](C(=O)N[C@@H](CCCNC(=N)N)C(=O)N[C@H](C(=O)O)C(C)C)[C@@H](C)O)[C@@H](C)O [Neuroligin] (Biotin-TFAAGFNSTGLPHSTTRV-OH; C-terminus assumed)	–	–

SMILES	Classification (PDZ Mint 1, PDZ Domain 1, 2)	Classification (PDZ Mint 1, PDZ Domain 2)	other results
CSCC[C@H](NC(=O)[C@H](C)NC(=O)[C@H](CCCNC(=N)N)NC(=O)CNC(=O)[C@@H](NC(=O)[C@H](Cc1c[nH]c2ccccc12)NC(=O)[C@H](CCCNC(=N)N)NC(=O)CNC(=O)CCCC[C@@H]1SC[C@@H]2NC(=O)N[C@@H]21)[C@@H](C)O)C(=O)N[C@@H](CO)C(=O)N[C@@H](C)C(=O)N[C@@H](Cc1c[nH]c2ccccc12)C(=O)N[C@@H](CCCCN)C(=O)N1CCC[C@H]1C(=O)N[C@H](C(=O)N[C@@H](CCCNC(=N)N)C(=O)N[C@@H](CCCNC(=N)N)C(=O)N[C@@H](CCC(=O)O)C(=O)N[C@H](C(=O)N[C@@H](CCC(=O)O)C(=O)N[C@H](C(=O)O)C(C)C)[C@@H](C)O)[C@@H](C)O [HPV E6 #35 (modified)] (Biotin-GRWTGRAMSAWKPTRRETEV-OH; C-terminus assumed)	1 (A450 nm 0-1)	2 (A450 nm 1-2)	–
CC(C)C[C@H](NC(=O)[C@H](C)NC(=O)[C@H](CO)NC(=O)CNC(=O)[C@@H](NC(=O)CCCC[C@@H]1SC[C@@H]2NC(=O)N[C@@H]21)[C@@H](C)O)C(=O)N[C@@H](CCC(N)=O)C(=O)N[C@@H](C)C(=O)N[C@@H](Cc1c[nH]c2ccccc12)C(=O)N[C@@H](CCCNC(=N)N)C(=O)N[C@@H](Cc1c[nH]cn1)C(=O)N[C@H](C(=O)N[C@@H](CO)C(=O)N[C@@H](CCCNC(=N)N)C(=O)N[C@@H](CCC(N)=O)C(=O)N[C@@H](C)C(=O)N[C@H](C(=O)N[C@@H](CCC(=O)O)C(=O)N[C@@H](CO)C(=O)N[C@H](C(=O)N[C@H](C(=O)O)C(C)C)[C@@H](C)O)[C@@H](C)O)[C@@H](C)O [HPV E6 #66 (modified)] (Biotin-TGSALQAWRHTSRQATESTV-OH; C-terminus assumed)	1 (A450 nm 0-1)	1 (A450 nm 0-1)	–
CC[C@H](C)[C@H](NC(=O)[C@H](CCC(N)=O)NC(=O)[C@@H](NC(=O)[C@H](Cc1c[nH]cn1)NC(=O)[C@H](CCC(N)=O)NC(=O)[C@H](CC(=O)O)NC(=O)[C@H](CCC(=O)O)NC(=O)[C@H](CC(=O)O)NC(=O)[C@H](Cc1ccccc1)NC(=O)[C@@H]1CCCN1C(=O)[C@H](CCC(=O)O)NC(=O)[C@H](CC(N)=O)NC(=O)[C@H](CCC(=O)O)NC(=O)[C@@H]1CCCN1C(=O)[C@H](CC(=O)O)NC(=O)[C@H](CO)NC(=O)[C@H](CC(=O)O)NC(=O)CCCC[C@@H]1SC[C@@H]2NC(=O)N[C@@H]21)[C@@H](C)O)C(=O)N[C@H](C(=O)N[C@@H](CCCCN)C(=O)N[C@H](C(=O)O)C(C)C)[C@@H](C)O [PTEN]	1 (A450 nm 0-1)	1 (A450 nm 0-1)	–
